# Measurements: patent US7083932B1, “Nucleic acid molecules encoding peptides having pronociceptive properties” (Euroscreen, s.a., priority 1995, dated 2006)
# Counter-ions that a name gives are not always drawn. Ends that are not written are not given here.
# Columns and labels:
# mice [1] = assay: antagonism of nociceptin-induced stimulation of horizontal locomotor activity; format: in vivo
# mice [2] = assay: hole board test; format: in vivo; details: 5 mg/kg s.c., tested 15 minutes later; saline 150±8
# ORL1 receptor = ORL1 receptor (Homo sapiens, UniProt P41146); assay: cell-based
# Sequence of ORL1 receptor (P41146 whole entry): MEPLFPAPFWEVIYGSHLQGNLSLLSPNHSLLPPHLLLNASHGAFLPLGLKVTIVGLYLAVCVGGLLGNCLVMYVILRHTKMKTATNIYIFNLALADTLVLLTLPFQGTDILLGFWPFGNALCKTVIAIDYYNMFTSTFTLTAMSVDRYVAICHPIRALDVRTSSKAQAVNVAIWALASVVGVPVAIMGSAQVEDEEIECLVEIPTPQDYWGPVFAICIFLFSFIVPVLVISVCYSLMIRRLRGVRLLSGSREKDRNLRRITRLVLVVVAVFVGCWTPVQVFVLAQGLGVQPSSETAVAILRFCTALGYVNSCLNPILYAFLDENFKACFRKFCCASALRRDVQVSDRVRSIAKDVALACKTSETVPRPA
# CHO(ORL1−) cells = format: cell-based
compound,measurement,setting,value
"C=CCN1CC[C@]23c4c5ccc(O)c4O[C@H]2C(=O)CC[C@@]3(O)[C@H]1C5 [Naloxone, Naloxone hydrochloride]",effect on motor-stimulant effect of 100 ng nociceptin,"mice [1]; 0.0–4.5 mg/kg s.c., 10 minutes before i.c.v. nociceptin, first 10 minutes of testing",did not suppress
O=C(CCCN1CCC(O)(c2ccc(Cl)cc2)CC1)c1ccc(F)cc1 [haloperidol],antagonism of nociceptin stimulation of locomotor activity,mice [1]; increasing doses of antagonist,antagonized
CN1CC[C@]23c4c5ccc(O)c4O[C@H]2[C@@H](O)C=C[C@H]3[C@H]1C5 [morphin],Number of explored holes during the 20 minutes period,mice [2],24±2
YGGFTGARKSARKLANQ [^1Tyr analogue],IC50,ORL1 receptor,1 nM
same,maximal inhibition of forskolin-induced cAMP accumulation,ORL1 receptor,> 90%
same,activity on cyclase in wild type cells,CHO(ORL1−) cells,totally inactive
